Patent US20090186918A1, “Triazole Compounds as Lipoxygenase Inhibitors” (priority 2005, published 2009)

Each compound was assayed against T1, purified human 15-lipoxygenase (Homo sapiens, UniProt P16050) (assay: 15-lipoxygenase inhibition assay (arachidonic acid oxidation, 15-HPETE/15-HETE measured by reverse phase HPLC)). Conditions: not given.
T1 sequence (P16050 1-662): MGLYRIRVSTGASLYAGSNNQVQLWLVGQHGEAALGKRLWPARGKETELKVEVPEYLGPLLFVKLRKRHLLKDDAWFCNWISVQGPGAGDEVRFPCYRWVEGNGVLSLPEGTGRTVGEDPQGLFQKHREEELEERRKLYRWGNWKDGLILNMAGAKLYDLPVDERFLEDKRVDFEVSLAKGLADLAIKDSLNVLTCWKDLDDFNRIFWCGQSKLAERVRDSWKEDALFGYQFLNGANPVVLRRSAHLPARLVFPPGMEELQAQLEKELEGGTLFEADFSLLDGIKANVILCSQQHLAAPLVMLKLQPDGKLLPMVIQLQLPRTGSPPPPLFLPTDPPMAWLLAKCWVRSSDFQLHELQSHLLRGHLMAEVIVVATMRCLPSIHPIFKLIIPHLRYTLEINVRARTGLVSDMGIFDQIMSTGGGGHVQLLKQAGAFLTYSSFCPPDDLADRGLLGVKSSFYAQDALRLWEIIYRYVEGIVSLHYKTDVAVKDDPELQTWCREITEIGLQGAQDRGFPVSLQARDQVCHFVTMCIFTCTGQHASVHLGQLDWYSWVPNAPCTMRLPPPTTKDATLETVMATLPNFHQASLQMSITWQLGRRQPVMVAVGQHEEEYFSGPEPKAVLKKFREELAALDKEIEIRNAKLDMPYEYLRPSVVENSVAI
Format: biochemical
Procedure: The assay employed takes advantage of the ability of lipoxygenases to oxidize polyunsaturated fatty acids, containing a 1,4-cis-pentadiene configuration, to their corresponding hydroperoxy or hydroxyl derivatives. In this particular assay, the lipoxygenase was a purified human 15-lipoxygenase and the fatty acid was arachidonic acid. The assay is performed at room temperature (20-22° C.) and the following are added to each well in a 96-well microtiter plate:
a) 35 μL phosphate buffered saline (PBS) (pH 7.4); b) inhibitor (i.e. compound) or vehicle (0.5 μl DMSO); c) 10 μL of a 10× concentrated solution of 15-lipoxygenase in PBS. The plates are incubated for 5 minutes at room temperature;
d) 5 μl of 0.125 mM arachidonic acid in PBS. The plate is then incubated for 10 minutes at room temperature;
e) the enzymatic reaction is terminated by the addition of 100 μl methanol; and f) the amount of 15-hydroperoxy-eicosatetraenoic acid or 15-hydroxy-eicosatetraenoic acid is measured by reverse phase HPLC.
Work on O=C(Nc1cnc2ccccc2c1)c1cn[nH]n1 [Example 1, 1,2,3-Triazole-4-carboxylic acid quinolin-3-ylamide] yielded an IC50 of 1.4 µM.

Same assay, conditions: purified human 15-lipoxygenase, arachidonic acid substrate, room temperature; read-out: IC50
Compound O=C(Nc1ccc(Cl)c(Cl)c1Cl)c1c[nH]nn1 [Example 6, 1,2,3-Triazole-4-carboxylic acid (2,3,4-trichlorophenyl)amide] has an IC50 of 0.33 µM. In the case of O=C(Nc1ccc(Cl)cn1)c1c[nH]nn1 [Example 7, 1,2,3-Triazole-4-carboxylic acid (5-chloropyridin-2-yl)amide], the IC50 is reported as 1.8 µM. O=C(Nc1ccc(Cl)c(Cl)c1)c1c[nH]nn1 [Example 9, 1,2,3-Triazole-4-carboxylic acid (3,4-dichlorophenyl)amide] gave an IC50 of 1.6 µM. Compound O=C(Nc1cc(Cl)c(Cl)cc1Cl)c1c[nH]nn1 [Example 12, 1,2,3-Triazole-4-carboxylic acid (2,4,5-trichlorophenyl)amide] has an IC50 of 0.76 µM. Work on Cc1cc(NC(=O)c2c[nH]nn2)ccc1Cl [Example 18, 1,2,3-Triazole-4-carboxylic acid (4-chloro-3-methylphenyl)amide] yielded an IC50 of 0.95 µM. O=C(Nc1ccc(Br)cn1)c1c[nH]nn1 [Example 35, 1,2,3-Triazole-4-carboxylic acid (5-bromopyridin-2-yl)amide] was tested, and the IC50 was 0.81 µM. Compound O=C(Nc1ccc(C(F)(F)F)cc1C(F)(F)F)c1c[nH]nn1 [Example 36, 1,2,3-Triazole-4-carboxylic acid [2,4-bis(trifluoromethyl)phenyl]amide] has an IC50 of 1.16 µM. O=C(Nc1ccc(C(F)(F)F)cc1[N+](=O)[O-])c1c[nH]nn1 [Example 73, 1,2,3-Triazole-4-carboxylic acid 2-nitro-4-(trifluoromethyl)phenylamide] was tested, and the IC50 was 3.8 µM. For O=C(Nc1ccc(Cl)cc1C(F)(F)F)c1c[nH]nn1 [Example 75, 1,2,3-Triazole-4-carboxylic acid 4-chloro-2-(trifluoromethyl)phenylamide], the IC50 was 0.25 µM. O=C(Nc1ccc(Cl)cc1F)c1c[nH]nn1 [Example 76, 1,2,3-Triazole-4-carboxylic acid 4-chloro-2-fluorophenylamide] showed an IC50 of 0.53 µM. Compound O=C(Nc1cc(Cl)cc(Cl)c1)c1c[nH]nn1 [Example 82, 1,2,3-Triazole-4-carboxylic acid (3,5-dichlorophenyl)amide] has an IC50 of 4.1 µM. Cc1ccc(NC(=O)c2c[nH]nn2)cc1F [Example 91, 1,2,3-Triazole-4-carboxylic acid (3-fluoro-4-methylphenyl)amide] showed an IC50 of 9.4 µM.
